System: TPA-induced edema in murine skin
Assay: TPA-induced edema in murine skin (mouse ear), topical anti-inflammatory activity
Assay type: in vivo, mouse (male CF-1)
Conditions: TPA 1 μg/ear, compound topically in acetone at 100 ug/ear just prior to TPA, 4 h after TPA, 6 mm punch biopsy weight
Protocol: Anti-inflammatory activities of the investigational compounds were studied in murine skin using the following protocol. Edema was induced by tetradecanoyl phorbol acteate (TPA) (1 μg/ear) [Marks, F., Furstenberger, G., Kownatzki, E., Prostaglandin E Mediated Stimulation of Mouse Epidermis in vivo by Divalent Cation Ionophore A23187 and by Tumor Promotor TPA, Cancer Res. 1981, 41:696-702]. Male CF-1 (Charles River) […] were used. Investigational compounds (in acetone at 100 ug/ear) were applied to one ear just prior to application of the inflammagen. Four hours after TPA application, edema was determined by comparing the weights of 6 mm punch biopsies from control (solvent) and inflammagen-treated ears. Percent inhibitions were calculated using standard equations.

`O=CCc1ccc(Cn2cnc3ccccc32)cc1` [Example 1 (Part D), 4-(benzimidazol-1'-ylmethyl)phenylacetaldehyde] was tested, and the “% Inhibition” value was 63%.

In the case of `O=CCc1ccc(Cn2ncc3ccccc32)cc1` [Example 2 (Part D), 4-(indazol-1'-ylmethyl)phenylacetaldehyde], the “% Inhibition” value is reported as 98%.

`O=CCc1ccc(Cn2nnc3ccccc32)cc1` [Example 3 (Part D), 4-(benzotriazol-1'-ylmethyl)phenylacetaldehyde] was tested, and the “% Inhibition” value was 46%.

From patent US5272169A, “(N-benzyl) acetaldehyde bicyclic heterocycles useful as topical antiinflammatories” (The DuPont Merck Pharmaceutical Company, priority 1993, dated 1993)
